Experiments:
Conditions in all cases: human; call rule not given here
Hepatotoxicity [1] = assay: FDA HLAED, liver enzyme composite activity
Hepatotoxicity [2] = assay: FDA HLAED, alkaline phosphatase increase
Hepatotoxicity [3] = assay: FDA HLAED, serum glutamic oxaloacetic transaminase (SGOT) increase
Hepatotoxicity [4] = assay: FDA HLAED, serum glutamic pyruvic transaminase (SGPT) increase
Hepatotoxicity [5] = assay: FDA HLAED, lactate dehydrogenase (LDH) increase
Hepatotoxicity [6] = assay: FDA HLAED, gamma-glutamyl transferase (GGT) increase
Throughout, for GGT Increase - Index Value: reference of the scale not given here.
Throughout, for LDH Increase - Index Value: reference of the scale not given here.

Compound	Composite Activity - Active (Hepatotoxicity [1])	Composite Activity - Marginal (Hepatotoxicity [1])	Composite Activity - Score (Hepatotoxicity [1])	Alkaline Phosphatase Increase - Activity Score (Hepatotoxicity [2])	Alkaline Phosphatase Increase - Index Value (Hepatotoxicity [2])	Alkaline Phosphatase Increase - Number of Reports (Hepatotoxicity [2])	SGOT Increase - Activity Score (Hepatotoxicity [3])	SGOT Increase - Index Value (Hepatotoxicity [3])	SGOT Increase - Number of Reports (Hepatotoxicity [3])	SGPT Increase - Activity Score (Hepatotoxicity [4])	SGPT Increase - Index Value (Hepatotoxicity [4])	SGPT Increase - Number of Reports (Hepatotoxicity [4])	LDH Increase - Activity Score (Hepatotoxicity [5])	LDH Increase - Index Value (Hepatotoxicity [5])	LDH Increase - Number of Reports (Hepatotoxicity [5])	GGT Increase - Activity Score (Hepatotoxicity [6])	GGT Increase - Index Value (Hepatotoxicity [6])	GGT Increase - Number of Reports (Hepatotoxicity [6])
CCC(C)n1ncn(-c2ccc(N3CCN(c4ccc(OCC5COC(Cn6cncn6)(c6ccc(Cl)cc6Cl)O5)cc4)CC3)cc2)c1=O (configuration not stated) [ITRACONAZOLE]	5	0	Active	Active	12.4	>= 4	Active	19.6	>= 4	Active	19.8	>= 4	Active	5.8	>= 4	Active	14.1	>= 4
CC(=O)N1CCN(c2ccc(OCC3COC(Cn4ccnc4)(c4ccc(Cl)cc4Cl)O3)cc2)CC1 (configuration not stated) [KETOCONAZOLE]	3	0	Active	Active	5.4	>= 4	Active	14.7	>= 4	Active	10.7	>= 4	Inactive	2.7	< 4	Inactive	0	< 4
CC(C(=O)O)c1cccc(C(=O)c2ccccc2)c1 (configuration not stated) [KETOPROFEN]	0	0	Inactive	Inactive	0.6	< 4	Inactive	0.6	< 4	Inactive	0.4	< 4	Inactive	0.4	< 4	Inactive	0	< 4
O=C(c1ccccc1)c1ccc2n1CCC2C(=O)O (configuration not stated) [KETOROLAC]	0	0	Inactive	Inactive	1.4	>= 4	Inactive	0.9	>= 4	Inactive	0.6	>= 4	Inactive	0.5	>= 4	Inactive	0.5	< 4
CC(CCc1ccccc1)NCC(O)c1ccc(O)c(C(N)=O)c1 (configuration not stated) [LABETALOL]	0	1	Inactive	Inactive	0.9	>= 4	Marginally Active	3	>= 4	Inactive	1.1	>= 4	Inactive	0.4	< 4	Inactive	0	< 4
Nc1ccn([C@@H]2CS[C@H](CO)O2)c(=O)n1 [LAMIVUDINE]	2	0	Active	Inactive	2.1	>= 4	Active	8.7	>= 4	Active	9	>= 4	Inactive	2.1	>= 4	Inactive	1.7	>= 4
Nc1nnc(-c2cccc(Cl)c2Cl)c(N)n1 [LAMOTRIGINE]	2	1	Active	Inactive	0.5	< 4	Active	4	>= 4	Active	4	>= 4	Marginally Active	3	>= 4	Inactive	2	< 4
Cc1c(OCC(F)(F)F)ccnc1C[S+]([O-])c1nc2ccccc2[nH]1 (configuration not stated) [LANSOPRAZOLE]	0	0	Inactive	Inactive	0.5	< 4	Inactive	0.9	>= 4	Inactive	1.2	>= 4	Inactive	0.5	< 4	Inactive	1.1	>= 4
CC(C)OC(=O)CCC/C=C\C[C@@H]1[C@@H](CC[C@@H](O)CCc2ccccc2)[C@H](O)C[C@@H]1O [LATANOPROST]	0	0	Inactive	Inactive	0.2	< 4	Inactive	0.2	< 4	Inactive	0	< 4	Inactive	0	< 4	Inactive	0	< 4
